Reference: PMC8958504 (Journal of Medicinal Chemistry, 2022)
Where two headings read alike, the source gives them in different places.

Legend:
[1] = Oxygen radical absorbance capacity (ORAC-FL) assay; conditions: trolox = 1.0
Description: 2,2′-Azobis-(amidinopropane) dihydrochloride (AAPH), trolox, and fluorescein (FL) were purchased from Sigma-Aldrich. The reaction was carried out in a 75 mM phosphate buffer (pH 7.4), and the final reaction mixture was 200 μL. […] Antioxidant curves (fluorescence vs time) were first normalized to the curve of the blank corresponding to the same assay, and the area under the curve (AUC) of fluorescence decay was calculated. The net AUC corresponding to a sample was calculated by subtracting the AUC corresponding to the blank. Regression equations between the net AUC and antioxidant concentration were calculated for all the samples.

in vitro = in vitro ADME; conditions: for Papp at 240 min, 100 μg mL^–1: PAMPA; for PAMPA-BBB (Pe, 10^–6 cm s^–1): porcine brain lipid
hMAO-B = target: T1, hMAO-B (Homo sapiens, UniProt P27338); assay: biochemical; conditions: for IC50: read-out: hMAO-B (IC50), recombinant hMAO-B, p-tyramine substrate; for inhibition at 50 µM: read-out: hMAO-B percentage of inhibition (in brackets)
T1 sequence (P27338 1-520): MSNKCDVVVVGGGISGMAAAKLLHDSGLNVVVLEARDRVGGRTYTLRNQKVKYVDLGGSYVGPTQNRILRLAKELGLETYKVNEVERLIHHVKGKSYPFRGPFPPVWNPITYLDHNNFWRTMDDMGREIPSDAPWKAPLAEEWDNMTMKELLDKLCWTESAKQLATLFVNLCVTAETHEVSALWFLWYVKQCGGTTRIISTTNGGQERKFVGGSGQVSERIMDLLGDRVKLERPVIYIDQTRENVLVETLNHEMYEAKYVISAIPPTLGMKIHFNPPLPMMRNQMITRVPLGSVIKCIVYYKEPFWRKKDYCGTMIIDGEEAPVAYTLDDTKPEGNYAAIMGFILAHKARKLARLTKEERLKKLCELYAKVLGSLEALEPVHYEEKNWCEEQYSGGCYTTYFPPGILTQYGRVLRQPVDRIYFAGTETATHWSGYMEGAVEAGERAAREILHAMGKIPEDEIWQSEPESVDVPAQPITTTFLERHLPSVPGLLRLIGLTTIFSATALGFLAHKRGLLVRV
Description: (§1) The hMAO-A/B inhibition of all compounds was determined using the Amplex Red MAO assay kit.
(§2) Assays were performed following the general procedure previously described.[98] […] The specific fluorescence emission was calculated after subtracting the background activity, which was determined from wells containing all components except the hMAO isoforms, which were replaced with PBS.

hMAO-A = target: T2, hMAO-A (Homo sapiens, UniProt P21397); assay: biochemical; conditions: for IC50: read-out: hMAO-A (IC50), recombinant hMAO-A, p-tyramine substrate
T2 sequence (P21397 1-527): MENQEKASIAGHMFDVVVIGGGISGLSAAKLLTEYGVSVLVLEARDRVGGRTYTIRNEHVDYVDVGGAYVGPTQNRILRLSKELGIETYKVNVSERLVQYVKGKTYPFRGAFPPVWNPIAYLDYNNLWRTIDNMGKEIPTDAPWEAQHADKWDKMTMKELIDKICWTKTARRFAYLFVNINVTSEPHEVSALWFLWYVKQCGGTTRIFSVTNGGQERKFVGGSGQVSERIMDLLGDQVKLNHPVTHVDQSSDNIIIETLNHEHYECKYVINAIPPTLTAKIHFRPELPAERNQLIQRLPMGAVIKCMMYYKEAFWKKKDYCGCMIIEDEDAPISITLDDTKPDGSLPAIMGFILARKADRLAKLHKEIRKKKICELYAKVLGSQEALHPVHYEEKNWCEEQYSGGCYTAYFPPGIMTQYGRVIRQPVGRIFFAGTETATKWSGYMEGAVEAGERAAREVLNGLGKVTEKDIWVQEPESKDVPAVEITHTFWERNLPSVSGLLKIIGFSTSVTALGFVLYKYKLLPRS
Description: as §1, §2

[2] = test system: NRF2-ARE signaling pathway; assay: cells; type: cell-based; conditions: for EC (2-fold induction): Arec32, 24 h, read-out: NRF2 (CD, μM), concentration required to double luciferase activity, AREc32 cells, 24 h; for NRF2 (CD, μM): concentration required to double luciferase activity, AREc32 cells, 24 h
Description: AREc32 cells were plated in 96-well white plates (2 × 10^4 cells/well). […]. The AREc32 cells constitutively express the plasmid pGL-8xARE that implements eight copies of the EpRE sequences, followed by the luciferase reporter gene. Therefore, NRF2 induction is related to the activation of EpRE sequences, expressing luciferase at the same extent as EpRE sequences are activated. The Luciferase Assay System (Promega E1500) was used according to the provider’s protocol, and luminescence was quantified in an Orion II microplate luminometer (Berthold, Germany). Fold induction of luciferase activity was normalized to basal conditions. Data are expressed as CD values, expressing the concentration required to double the luciferase activity. CD values were calculated from dose–response curves generated from the fold induction of control conditions versus inducer concentration and fitted by nonlinear regression and data interpolated to twofold induction concentration.[68]

QR2 = target: T3, QR2 (Mesocricetus auratus, UniProt A0ABM2YAB8); assay: biochemical
T3 sequence (A0ABM2YAB8 1-231): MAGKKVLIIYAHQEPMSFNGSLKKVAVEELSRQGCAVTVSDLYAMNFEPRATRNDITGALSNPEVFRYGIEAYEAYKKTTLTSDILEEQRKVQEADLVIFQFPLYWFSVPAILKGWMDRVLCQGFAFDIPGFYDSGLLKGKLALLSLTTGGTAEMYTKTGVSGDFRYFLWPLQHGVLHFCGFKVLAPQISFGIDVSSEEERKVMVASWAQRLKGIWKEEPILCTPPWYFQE
Description: The QR2 experiments were performed in membrane homogenates of hamster brains (https://www.eurofins.fr, catalog ref. 0088). […] First, radioligand displacement was measured at a fixed compound concentration (10 μM) in each receptor.

[3] = pH 7.4, class from PAMPA-BBB Pe, read-out: CNS-permeability prediction
[4] = PBS/EtOH (70:30), 240 min, 25 °C

| Structure (SMILES) | ORAC (trolox equiv) [1] [trolox equiv] | Papp at 240 min, 100 μg mL^–1 (in vitro; [3]) [×10⁻⁶ cm/s] | Papp at 240 min, 100 μg mL^–1 (in vitro; pH 7.4, porcine brain lipid, PBS/EtOH (70:30), 240 min, 25 °C, read-out: PAMPA-BBB) [×10⁻⁶ cm/s] | PAMPA-BBB (Pe, 10^–6 cm s^–1) (in vitro; [4]) | IC50 (hMAO-B) [µM] | inhibition at 50 µM (hMAO-B) [%] | IC50 (hMAO-A) [µM] | inhibition at 50 µM (hMAO-A; read-out: hMAO-A percentage of inhibition (in brackets)) [%] | EC (2-fold induction) [2] [µM] | NRF2 (CD, μM) [2] [µM] | Papp at 240 min, 100 μg mL^–1 (in vitro; pH 7.4, PAMPA standards, mean ± SD of three experiments, read-out: Permeability Pe, Exp) [×10⁻⁶ cm/s] | IC50 (QR2) [µM] |
| --- | --- | --- | --- | --- | --- | --- | --- | --- | --- | --- | --- | --- |
| C#CCNC(=O)/C=C/c1ccc(O)c(OC)c1 [6n, (2E)-3-(4-Hydroxy-3-methoxyphenyl)-N-(prop-2-yn-1-yl)prop-2-enamide] | 0.5 ± 0.03 | < 2 | < 2 | ≤ 0.5 10^–6 cm s^–1 | > 50 | 33 | > 50 | 33 | > 60 | >60 |  |  |
| COc1ccc(/C=C/c2n[nH]c(=O)o2)c(OC)c1 [2f, 5-[(E)-2-(2,4-Dimethoxyphenyl)ethenyl]-1,3,4-oxadiazol-2(3H)-one] | 0.6 ± 0.08 | 2 to 4 |  | 3.6 ± 0.2 10^–6 cm s^–1 | > 50 |  | > 50 |  |  |  |  |  |
| C#CCNC(=O)/C=C/c1cccc(C#N)c1 [6b, (2E)-3-(3-Cyanophenyl)-N-(prop-2-yn-1-yl)prop-2-enamide] | <0.1 |  |  |  | > 50 |  | > 50 |  | > 60 |  |  |  |
| COc1ccc(/C=C/c2n[nH]c(=O)o2)cc1OC [2h, 5-[(E)-2-(3,4-Dimethoxyphenyl)ethenyl]-1,3,4-oxadiazol-2(3H)-one] | <0.1 | 2 to 4 |  | 2.4 ± 0.3 10^–6 cm s^–1 | > 50 |  | > 50 |  | > 60 |  |  |  |
| O=c1[nH]nc(/C=C/c2cc(O)cc(O)c2)o1 [3p, 5-[(E)-2-(3,5-Dihydroxyphenyl)ethenyl]-1,3,4-oxadiazol-2(3H)-one] | 1.9 ± 0.1 | < 2 |  | ≤ 0.1 10^–6 cm s^–1 | > 50 |  | > 50 |  | > 60 |  |  |  |
| C[C@]12CCC(=O)C=C1CC[C@@H]1[C@@H]2[C@@H](O)C[C@]2(C=O)[C@@H](C(=O)CO)CC[C@@H]12 [Aldosterone, reference compound] |  |  |  |  |  |  |  |  |  |  | 3.1 ± 0.2 |  |
| COc1cc(/C=C/c2n[nH]c(=O)o2)cc(OC)c1OC [2k, 5-[(E)-2-(3,4,5-Trimethoxyphenyl)ethenyl]-1,3,4-oxadiazol-2(3H)-one] | <0.1 | < 2 |  | ≤ 0.5 10^–6 cm s^–1 | > 50 |  | > 50 |  |  |  |  |  |
| O=c1[nH]nc(/C=C/c2ccc(O)c(O)c2)o1 [3o, 5-[(E)-2-(3,4-Dihydroxyphenyl)ethenyl]-1,3,4-oxadiazol-2(3H)-one] | 1.7 ± 0.1 | < 2 |  | ≤ 0.2 10^–6 cm s^–1 | 5.8 ± 0.4 |  | 3.4 ± 0.2 |  |  | 21.3 ± 1.6 |  |  |
| C[S+]([O-])CCCCN=C=S (stereo not shown) [sulforaphane, reference compound] |  |  |  |  |  |  |  |  | 1.24 | 1.24 ± 0.28 |  |  |
| N#Cc1cccc(/C=C/c2n[nH]c(=O)o2)c1 [2b, 3-[(E)-2-(5-Oxo-4,5-dihydro-1,3,4-oxadiazol-2-yl)ethenyl]benzonitrile] | <0.1 | > 4 |  | 4.5 ± 0.3 10^–6 cm s^–1 | > 50 | 38 | > 50 |  | 13.7 | 13.7 ± 2.2 |  |  |
| O=c1[nH]nc(/C=C/c2ccc3c(c2)OCO3)o1 [2i, 5-[(E)-2-(2H-1,3-Benzodioxol-5-yl)ethenyl]-1,3,4-oxadiazol-2(3H)-one] | <0.1 | 2 to 4 |  | 3.8 ± 0.2 10^–6 cm s^–1 | 27.6 ± 0.9 |  | > 50 |  |  |  |  |  |
| COc1ccc2[nH]cc(CCNC(C)=O)c2c1 [melatonin, reference compound] |  |  |  |  |  |  |  |  |  |  |  | 0.077 ± 0.001 |
| C#CCNC(=O)/C=C/c1ccc(OC)cc1 [6e, (2E)-3-(4-Methoxyphenyl)-N-(prop-2-yn-1-yl)prop-2-enamide] | <0.1 |  |  |  | > 50 |  | > 50 |  |  |  |  |  |
| C#CCNC(=O)/C=C/c1ccc(O)cc1 [6m, (2E)-3-(4-Hydroxyphenyl)-N-(prop-2-yn-1-yl)prop-2-enamide] | 3.0 ± 0.2 |  |  |  | 31.1 ± 1.57 |  | > 50 |  |  |  |  |  |
| COc1ccc(OC)c(/C=C/c2n[nH]c(=O)o2)c1 [2g, 5-[(E)-2-(2,5-Dimethoxyphenyl)ethenyl]-1,3,4-oxadiazol-2(3H)-one] | <0.1 | 2 to 4 |  | 3.0 ± 0.2 10^–6 cm s^–1 | > 50 |  | > 50 |  |  |  |  |  |
| C#CCNC(=O)/C=C/c1cccc(O)c1 [6l, (2E)-3-(3-Hydroxyphenyl)-N-(prop-2-yn-1-yl)prop-2-enamide] | 3.0 ± 0.3 |  |  |  | > 50 |  | > 50 |  |  |  |  |  |
